Two compounds from BindingDB's records for doi:10.1016/j.bmcl.2004.06.018 (Darmstadt Technical University, 2004) can be followed below.

By IC50 is commonly meant the concentration at which inhibition is half-maximal. Low readings indicate inhibition by little substance, high ones a need for much substance.

In the test the target is Proto-oncogene tyrosine-protein kinase Src (Homo sapiens, UniProt P12931). The test is described as follows: Inhibition of fluorescent (GpYEEI) binding to Src protein tyrosine kinase SH2 domain.
Chain of Proto-oncogene tyrosine-protein kinase Src (P12931 2-536 limits assumed): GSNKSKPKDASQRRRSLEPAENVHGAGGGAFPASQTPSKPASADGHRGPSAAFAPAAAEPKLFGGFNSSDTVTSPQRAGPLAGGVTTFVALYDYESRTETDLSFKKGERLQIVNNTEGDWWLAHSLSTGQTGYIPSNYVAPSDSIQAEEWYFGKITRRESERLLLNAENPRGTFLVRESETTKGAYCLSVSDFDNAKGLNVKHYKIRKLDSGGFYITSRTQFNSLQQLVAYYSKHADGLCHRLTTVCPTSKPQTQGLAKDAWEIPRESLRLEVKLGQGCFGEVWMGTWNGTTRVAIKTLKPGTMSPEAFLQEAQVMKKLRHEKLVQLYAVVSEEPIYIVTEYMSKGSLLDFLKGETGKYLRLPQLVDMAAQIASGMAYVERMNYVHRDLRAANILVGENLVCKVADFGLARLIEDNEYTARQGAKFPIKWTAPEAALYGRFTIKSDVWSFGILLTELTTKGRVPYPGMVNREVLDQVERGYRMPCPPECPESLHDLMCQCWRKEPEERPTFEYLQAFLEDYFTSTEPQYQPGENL

The compound `COc1cccc(CNC(=O)[C@@H](NC(=O)COc2cc3[n+]4c(c2)C(=O)[O][Cu]4([OH])[O]C3=O)c2ccccc2)c1` [Copper complex] displayed an IC50 of 20 µM.
In turn, `COc1cccc(CNC(=O)[C@H](Cc2ccccc2)NC(=O)COc2cc3[n+]4c(c2)C(=O)[O][Cu]4([OH])[O]C3=O)c1` [Copper complex] yielded an IC50 of 17 µM.
